# Test results taken from US20150224085A1, “METHOD OF ADMINISTERING A 5,5-FUSED HETEROARYLENE HEPATITIS C VIRUS INHIBITOR FOR TREATING OF PREVENTING HEPATITIS C VIRUS INFECTION” (priority 2012, published 2015).
# Several values for one entry are separate records, joined by “and”; a condition that tells them apart may be missing. Equal values may be shown once. Read-outs that look alike come from different tables or passages of the source.
# Experiments:
# [1] = test system: genotype 2 replicon with L31M substitution (NS5A M31); assay: HCV replicon model, resistance; assay type: cell-based, hepatitis C virus
# clinical = settings: human, in vivo
# Experimental: (§1) The phase I/IIa study was designed to evaluate safety and tolerability, pharmacokinetics (PK), food effect, and antiviral activity with regard to the Compound. The key safety parameters that were evaluated in the trial include adverse events (AEs), physical examination, vital signs, 12-lead electrocardiogram (ECG), and standard safety laboratory tests. The key antiviral activity parameters that were evaluated in the trial include changes in plasma HCV RNA and emergence of resistance mutations. The key pharmacokinetic parameters that were evaluated in the trial include plasma and urine concentrations of the Compound.
# (§2) In the phase I/IIa study, plasma HCV RNA was quantitated using a validated commercial assay (COBAS® TAQMAN®) with a lower limit of quantitation of 25 IU/mL. HCV RNA genotyping was performed at Baseline using the Versant HCV Genotype Assay (LiPA) 2.0.
# (§3) In Group C, the Compound was evaluated in a randomized, double-blind, placebo-controlled, parallel dosing study in 34 treatment-naive, genotype 1 HCV-infected subjects.
# (§4) In Group D, the Compound was evaluated in an randomized, double-blind, placebo-controlled, parallel dosing study in 30 treatment-naive, genotypes 2, 3, and 4 HCV-infected subjects.
# (§5) For all cohorts, dosing was under fasted in this study.
# [2] = Phase I/IIa Group A: pharmacokinetics in healthy subjects; assay type: in vivo, human; settings: for Cmax / half-life / AUC(0-inf) / Tmax: human, plasma, oral
# Experimental: The phase I/IIa study was designed to evaluate safety and tolerability, pharmacokinetics (PK), food effect, and antiviral activity with regard to the Compound. The key safety parameters that were evaluated in the trial include adverse events (AEs), physical examination, vital signs, 12-lead electrocardiogram (ECG), and standard safety laboratory tests. The key antiviral activity parameters that were evaluated in the trial include changes in plasma HCV RNA and emergence of resistance mutations. The key pharmacokinetic parameters that were evaluated in the trial include plasma and urine concentrations of the Compound. […]
# The Compound was first evaluated in a randomized, double-blind, placebo-controlled, sequential dose escalation study in 48 healthy subjects. For each cohort, there were 6 subjects to receive the Compound and 2 subjects to receive placebo. Except cohort 5a, the Compound was administered under fasted conditions.
# For the food effect study (cohort 5a), subjects received a single dose of 50 mg of the Compound or placebo on Days 1 and 8, with a 7 day washout between dosing periods. In the food effect study, the subjects were randomized among two groups, differing by fasted/fed dosing sequences as shown in Table 3.
# HCV Genotype 3 = assay: Phase I/IIa Group D: HCV RNA reduction, 3-day dosing, Genotype 3; assay type: in vivo, hepatitis C virus; settings: n = 4
# Experimental: as §1, §2, §4, §5
# [3] = Phase I/IIa Groups C and D: safety and tolerability; assay type: in vivo, human
# Experimental: as §1, §3, §4, §5
# HCV Genotype 1a = assay: Phase I/IIa Group B: plasma HCV RNA reduction after single dose, Genotype 1a; assay type: in vivo, hepatitis C virus; settings: for Maximum Viral Load Reduction after Single Dose: 1 subject; for Mean maximum viral load reduction after Single Dose: 2 subjects
# Experimental: as §1, §2
# (§6) In Group B, the Compound was evaluated in an open-label, single day study in 18 subjects with chronic HCV Genotype 1, 2, or 3 infection. […] For all cohorts, dosing was under fasted in this study.
# HCV Genotype 1, 2, and 3 = assay: Phase I/IIa Group B: antiviral activity of single dose across genotypes; assay type: in vivo, hepatitis C virus; settings: Genotype 1, 2, and 3 HCV-infected subjects
# Experimental: as §1, §2, §6
# [4] = healthy subjects, 100 mg QD x 7 days, fasted, PK Day 1, mean ± SD
# [5] = 5 mg, healthy subjects, 5 mg single dose, fasted, PK Day 1, mean ± SD
# [6] = 10 mg, healthy subjects, 10 mg single dose, fasted, PK Day 1, mean ± SD
# [7] = 25 mg, healthy subjects, 25 mg single dose, fasted, PK Day 1, mean ± SD
# [8] = 50 mg, healthy subjects, 50 mg single dose, fasted, PK Day 1, mean ± SD
# [9] = 50 mg, healthy subjects, 50 mg single dose, fed, PK Day 1, mean ± SD
# [10] = 100 mg, healthy subjects, 100 mg QD x 7 days, fasted, PK Day 7, mean ± SD
# [11] = 100 mg, healthy subjects, 100 mg single dose, fasted, PK Day 1, mean ± SD
smiles,measurement,setting,value
"COC(=O)N[C@H](C(=O)N1CCC[C@H]1c1nc2cc(-c3csc4c(-c5ccc(-c6cnc([C@@H]7CCCN7C(=O)[C@H](NC(=O)OC)c7ccccc7)[nH]6)cc5)csc34)ccc2[nH]1)C(C)C [the Compound, [(S)-1-((S)-2-{6-[6-(4-{(S)-2-[1-((R)-2-methoxycarbonylamino-2-phenyl-acetyl)-pyrrolidin-2-yl]-3H-imidazol-4-yl}-phenyl)-thieno[3,2-b]thiophen-3-yl]-1H-benzoimidazol-2-yl}-pyrrolidine-1-carbonyl)-2-methyl-propyl]-carbamic acid methyl ester]",resistance conferred by L31M substitution (NS5A M31 polymorphism),[1],75 fold
same,AUC0-24,clinical; 25 mg,235 ± 79.9 ng·h/mL
same,Cmax,clinical; 25 mg,20 ± 6.74 ng/mL
same,Tmax,clinical; 25 mg,3.9 (3.0-6.0) hr
same,AUC(0-t),"clinical; 25 mg, AUC0-24",142 ± 44.5 ng·h/mL
same,Cmax,"clinical; 25 mg, Cmax",14 ± 5.19 ng/mL
same,Tmax,"clinical; 25 mg, Tmax",3.8 h
same,half-life,"clinical; 25 mg, t1/2",20.8 ± 4.06 h
same,AUC(0-t),clinical; 50 mg,384 ± 204 ng·h/mL
same,t1/2,clinical; 50 mg,19.7 ± 2.0 h
same,AUC(0-t),"clinical; 50 mg, AUC0-12",260 ± 102 ng·h/mL
same,AUC(0-t),"clinical; 50 mg, AUC0-24",387 ± 115 ng·h/mL
same,Cmax,"clinical; 50 mg, Cmax",32 ± 8.12 ng/mL
same,Tmax,"clinical; 50 mg, Tmax",3.4 h
same,half-life,"clinical; 50 mg, t1/2",23 ± 3.81 h
same,t1/2,clinical; 100 mg,19.3 ± 2.69 h
same,AUC(0-t),"clinical; 100 mg, AUC0-24",410 ± 122 ng·h/mL
same,Cmax,"clinical; 100 mg, Cmax",38 ± 8.6 ng/mL
same,Tmax,"clinical; 100 mg, Tmax",3.7 h
same,half-life,"clinical; 100 mg, t1/2",22.9 ± 3.6 h
same,half-life,clinical; Plasma half-life,~20 h
same,Tmax,clinical; Tmax,3.3 h
same,half-life,clinical; t1/2,19.7 ± 5.7 h
same,reduction of exposure by food,"[2]; 50 mg, after high-fat (about 55 g), high-calorie (about 950 kcal) meal",approximately two-thirds
same,increase of AUC0-inf upon reaching steady state,[2]; QD dosing x 7 days,approximately 50%
same,increase of Ctrough upon reaching steady state,[2]; QD dosing x 7 days,about 70%
same,Ctrough,"[2]; healthy subjects, 5 mg single dose, fasted, PK Day 1, mean ± SD",1.6 ± 0.5 ng/mL
same,Ctrough,"[2]; healthy subjects, 10 mg single dose, fasted, PK Day 1, mean ± SD",3.7 ± 1.8 ng/mL
same,Ctrough,"[2]; healthy subjects, 25 mg single dose, fasted, PK Day 1, mean ± SD",8.1 ± 2.9 ng/mL
same,Ctrough,"[2]; healthy subjects, 50 mg single dose, fasted, PK Day 1, mean ± SD",13.4 ± 4.6 ng/mL
same,Ctrough,"[2]; healthy subjects, 50 mg single dose, fed, PK Day 1, mean ± SD",5.6 ± 1.3 ng/mL
same,"AUC0-24 (column AUC0-inf, footnote 1)",[2]; [4],980 ± 312.4^1 ng · h/mL
same,Ctrough,[2]; [4],20.4 ± 9.0 ng/mL
same,Ctrough,"[2]; healthy subjects, 100 mg QD x 7 days, fasted, PK Day 7, mean ± SD",34 ng/mL and 34.0 ± 14.4 ng/mL
same,Ctrough,"[2]; healthy subjects, 100 mg single dose, fasted, PK Day 1, mean ± SD",17.1 ± 6.2 ng/mL
same,exposure versus dose,"[2]; healthy volunteers, dose range 5 to 100 mg",Dose proportional exposure
same,Cmax,[2]; [5],5.1 ± 1.1 ng/mL
same,half-life,[2]; [5],21 ± 4.5 h
same,AUC(0-inf),"[2]; 5 mg, healthy subjects, 5 mg single dose, fasted, PK Day 1, mean ± SD, read-out: AUC0-inf",110 ± 35.4 ng·h/mL
same,Tmax,"[2]; 5 mg, healthy subjects, 5 mg single dose, fasted, PK Day 1, median (min-max)",4 h
same,Cmax,[2]; [6],11.5 ± 4.3 ng/mL
same,half-life,[2]; [6],24 ± 4.7 h
same,AUC(0-inf),"[2]; 10 mg, healthy subjects, 10 mg single dose, fasted, PK Day 1, mean ± SD, read-out: AUC0-inf",259 ± 123 ng·h/mL
same,Tmax,"[2]; 10 mg, healthy subjects, 10 mg single dose, fasted, PK Day 1, median (min-max)",5 h
same,Cmax,[2]; [7],26.5 ± 11.1 ng/mL
same,half-life,[2]; [7],24 ± 3.2 h
same,AUC(0-inf),"[2]; 25 mg, healthy subjects, 25 mg single dose, fasted, PK Day 1, mean ± SD, read-out: AUC0-inf",570 ± 200 ng·h/mL
same,Tmax,"[2]; 25 mg, healthy subjects, 25 mg single dose, fasted, PK Day 1, median (min-max)",4 h
same,Cmax,[2]; [8],50.9 ± 18.1 ng/mL
same,half-life,[2]; [8],22 ± 1.7 h
same,AUC(0-inf),"[2]; 50 mg, healthy subjects, 50 mg single dose, fasted, PK Day 1, mean ± SD, read-out: AUC0-inf",952 ± 336 ng·h/mL
same,Tmax,"[2]; 50 mg, healthy subjects, 50 mg single dose, fasted, PK Day 1, median (min-max)",4 h
same,Cmax,[2]; [9],13.2 ± 3.3 ng/mL
same,half-life,[2]; [9],23 ± 3 h
same,AUC(0-inf),"[2]; 50 mg, healthy subjects, 50 mg single dose, fed, PK Day 1, mean ± SD, read-out: AUC0-inf",335 ± 53.9 ng·h/mL
same,Tmax,"[2]; 50 mg, healthy subjects, 50 mg single dose, fed, PK Day 1, median (min-max)",6 h
same,Cmax,"[2]; 100 mg, healthy subjects, 100 mg QD x 7 days, fasted, PK Day 1, mean ± SD",86.9 ± 25.9 ng/mL
same,Tmax,"[2]; 100 mg, healthy subjects, 100 mg QD x 7 days, fasted, PK Day 1, median (min-max)",4 h
same,Cmax,[2]; [10],117 ± 39.4 ng/mL
same,half-life,[2]; [10],21 ± 3.4 h
same,AUC(0-inf),"[2]; 100 mg, healthy subjects, 100 mg QD x 7 days, fasted, PK Day 7, mean ± SD, read-out: AUC0-inf (cell marked with footnote 1)",1480 ± 489 ng·h/mL
same,Tmax,"[2]; 100 mg, healthy subjects, 100 mg QD x 7 days, fasted, PK Day 7, median (min-max)",3.5 h
same,Cmax,[2]; [11],83.3 ± 49.1 ng/mL
same,half-life,[2]; [11],23 ± 2.7 h
same,AUC(0-inf),"[2]; 100 mg, healthy subjects, 100 mg single dose, fasted, PK Day 1, mean ± SD, read-out: AUC0-inf",1290 ± 402 ng·h/mL
same,Tmax,"[2]; 100 mg, healthy subjects, 100 mg single dose, fasted, PK Day 1, median (min-max)",4 h
same,Mean (Range) Maximal HCV RNA Reduction from Baseline,HCV Genotype 3; 50 mg BID x 3 days,3.3 (2.5-4.6) log10 IU/mL
same,Mean (Range) Maximal HCV RNA Reduction from Baseline,HCV Genotype 3; 100 mg QD x 3 days,3.4 (3.1-3.8) log10 IU/mL
same,intensity of adverse events,[3]; Groups C and D,mild or moderate
same,most common adverse events,[3]; Groups C and D,"headache, constipation, and nausea"
same,discontinuations and serious adverse events,"[3]; Groups C and D, 25 to 100 mg/day x 3 days",no safety-related discontinuations or serious adverse events
same,safety and tolerability,[3]; daily doses up to 100 mg for 3 days,safe and well tolerated
same,Maximum Viral Load Reduction after Single Dose,HCV Genotype 1a; 1 mg single dose,0.8^2 log10 IU/mL
same,Mean maximum viral load reduction after Single Dose,HCV Genotype 1a; 5 mg single dose,2.6^1 log10 IU/mL
same,Maximum Viral Load Reduction after Single Dose,HCV Genotype 1a; 10 mg single dose,2.9^2 log10 IU/mL
same,Mean maximum viral load reduction after Single Dose,HCV Genotype 1a; 25 mg single dose,3.7^1 log10 IU/mL
same,Maximum Viral Load Reduction after Single Dose,HCV Genotype 1a; 50 mg single dose,2.5^2 log10 IU/mL
same,Maximum Viral Load Reduction after Single Dose,HCV Genotype 1a; 100 mg single dose,3.3^2 log10 IU/mL
same,antiviral activity,"HCV Genotype 1, 2, and 3",potent pan-genotypic antiviral activity
